# Data: ChEMBL document CHEMBL1128643, “Impact of polyamine analogues on the NMDA receptor” (1995)
# Columns and labels:
# [1] = species on record: Rattus norvegicus; test: Compound was evaluated for agonist activity at 10 uM exhibiting moderate antagonism of [3H]MK-801 binding relative to 100% control; assay type: functional; parameters: unit: % of control
# [2] = species on record: Rattus norvegicus; test: Compound was evaluated for agonist activity at 1 uM exhibiting moderate antagonism of [3H]MK-801 binding relative to 100% control; assay type: functional; parameters: unit: % of control
Structure (SMILES),Activity [1],Activity [2]
CNCCCNCCCNCCCNC,87.9,120.6
CC(C)(C)NCCCCNCCCCNCCCCNC(C)(C)C,33,106.5
C(CCNCCCCN[C@]12C[C@H]3C[C@H](C[C@H](C3)C1)C2)CNCCCCNC12C[C@H]3C[C@@H](C1)C[C@@H](C2)C3.Cl,15,101.9
CNCCCCNCCCCNCCCCNC,76.3,117.8
CCNCCCNCCCCNCCCNCC [BIS(ETHYL)SPERMINE],63.7,113.7
CCNCCCCNCCCCNCCCCNCC [DIETHYLHOMOSPERMINE],53.9,114.3
NCCCNCCCCNCCCN [SPERMINE],,123.2
